Assays:
[1] = target: T1, Histone deacetylase (Homo sapiens) (UniProt Q13547+O15379+Q9UBN7+Q92769+Q9UQL6+Q8WUI4+Q9BY41+Q96DB2+P56524+Q9UKV0+Q969S8); details: HeLa, at 0.1 µM
Description: Inhibition of HDAC in human HeLa cell extract assessed as fluorophore release at 0.1 uM by fluorescence spectrophotometry

[2] = target: T1, Histone deacetylase (Homo sapiens); details: HeLa, at 1 µM
Description: Inhibition of HDAC in human HeLa cell extract assessed as fluorophore release at 1 uM by fluorescence spectrophotometry

[3] = target: T1, Histone deacetylase (Homo sapiens); details: HeLa, at 10 µM
Description: Inhibition of HDAC in human HeLa cell extract assessed as fluorophore release at 10 uM by fluorescence spectrophotometry

[4] = target: Histone deacetylase; experiment: Inhibition of HDAC in human HeLa cell extract assessed as fluorophore release by fluorescence spectrophotometry; type: protein assay
[5] = tested on: HCT-116; experiment: Growth inhibition of human HCT116 cells after 5 days by alamar blue assay; type: functional; details: HCT-116, 120 h
[6] = Fraction unbound in plasma; type: ADME, cell-free
[7] = tested on: Liver; experiment: Metabolic stability in rat liver S9 fraction assessed as compound remaining; type: ADME, subcellular

Molecule O=C(CCCC1CCN(S(=O)(=O)c2ccccc2C(F)(F)F)CC1)NO has an inhibition [1] of 30% and an inhibition [2] of 69%.

Work on O=C(CCCC1CCN(S(=O)(=O)c2ccccc2Cl)CC1)NO yielded an inhibition [3] of 86%, an IC50 [4] of 0.173 µM and a GI50 [5] of 2.8 µM. It also gave an inhibition [1] of 42% and an inhibition [2] of 77%.

In the case of COc1cccc(S(=O)(=O)N2CCC(CCCC(=O)NO)CC2)c1, the inhibition [3] is reported as 83%, the inhibition [1] is reported as 28% and the inhibition [2] is reported as 67%.

With CC(C)(C)c1ccc(S(=O)(=O)N2CCC(CCCC(=O)NO)CC2)cc1 the inhibition [1] was 9% and the inhibition [2] was 51%.

O=C(CCCC1CCN(S(=O)(=O)c2cccc(Cl)c2)CC1)NO showed an inhibition [1] of 4% and an inhibition [2] of 40%.

In the case of O=C(CCCC1CCN(S(=O)(=O)c2ccc3c(c2)CCO3)CC1)NO, the inhibition [1] is reported as 36% and the inhibition [2] is reported as 72%.

O=C(CCCC1CCN(S(=O)(=O)NCc2ccccc2)CC1)NO gave an inhibition [1] of 29% and an inhibition [2] of 65%.

O=C(/C=C/CC1CCN(S(=O)(=O)c2ccccc2)CC1)NO showed an inhibition [3] of 78%, an inhibition [1] of 19% and an inhibition [2] of 48%.

CN(c1ccccc1)S(=O)(=O)N1CCC(CCCC(=O)NO)CC1 gave an inhibition [1] of 19% and an inhibition [2] of 48%.

In the case of COc1ccc(S(=O)(=O)N2CCC(CCCC(=O)NO)CC2)cc1OC, the inhibition [3] is reported as 84%, the IC50 [4] is reported as 0.317 µM and the inhibition [1] is reported as 31%. It also gave an inhibition [2] of 71%.

For O=C(CCCC1CCN(S(=O)(=O)c2ccc3ccccc3c2)CC1)NO, the inhibition [3] was 86%, the IC50 [4] was 0.128 µM and the GI50 [5] was 1.9 µM. For the same molecule, the fraction unbound [6] was 0.02, the inhibition [1] was 53% and the inhibition [2] was 68%. For the same molecule, the Stability [7] was 2%.

For O=C(CCCC1CCN(S(=O)(=O)c2ccc3c(c2)OCCO3)CC1)NO, the inhibition [1] was 29% and the inhibition [2] was 68%.

Molecule O=C(CCCC1CCN(S(=O)(=O)c2ccc3ncsc3c2)CC1)NO has an inhibition [3] of 84%, an inhibition [1] of 26% and an inhibition [2] of 69%.

Cc1cc(C)c(S(=O)(=O)N2CCC(CCCC(=O)NO)CC2)c(C)c1 showed an inhibition [1] of 32% and an inhibition [2] of 75%.

Work on CC1(C)CCc2cc(S(=O)(=O)N3CCC(CCCC(=O)NO)CC3)ccc2O1 yielded an inhibition [3] of 86%, an inhibition [1] of 30% and an inhibition [2] of 75%.

Work on Cc1cc(S(=O)(=O)N2CCC(CCCC(=O)NO)CC2)cc2ccccc12 yielded an inhibition [3] of 86%, an IC50 [4] of 0.124 µM and a GI50 [5] of 17.3 µM. For the same molecule, the inhibition [1] was 48% and the inhibition [2] was 82%.

In the case of O=C(CCCC1CCN(S(=O)(=O)c2ccc(-c3ccccc3)cc2)CC1)NO, the inhibition [3] is reported as 80%, the inhibition [1] is reported as 20% and the inhibition [2] is reported as 44%.

Cc1cc(C)cc(S(=O)(=O)N2CCC(CCCC(=O)NO)CC2)c1 showed an inhibition [3] of 86%, an inhibition [1] of 22% and an inhibition [2] of 65%.

Molecule COc1ccc(S(=O)(=O)N2CCC(CCCC(=O)NO)CC2)c(OC)c1 has an inhibition [3] of 83%, an inhibition [1] of 22% and an inhibition [2] of 62%.

In the case of O=C(CCCC1CCN(S(=O)(=O)c2ccc(Cl)cc2)CC1)NO, the inhibition [1] is reported as 25% and the inhibition [2] is reported as 62%.

Molecule Cc1ccccc1S(=O)(=O)N1CCC(CCCC(=O)NO)CC1 has an inhibition [1] of 29% and an inhibition [2] of 69%.

Work on O=C(CCCC1CCN(S(=O)(=O)c2cccc(-c3cnco3)c2)CC1)NO yielded an inhibition [3] of 85%, an IC50 [4] of 0.213 µM and an inhibition [1] of 38%. It also gave an inhibition [2] of 75%.

With O=C(CCCC1CCN(S(=O)(=O)c2cccc(C(F)(F)F)c2)CC1)NO the inhibition [1] was 13% and the inhibition [2] was 57%.

Work on O=C(CCCC1CCN(S(=O)(=O)Nc2ccccc2)CC1)NO yielded a GI50 [5] of 2 µM, an inhibition [1] of 40% and an inhibition [2] of 70%.

O=C(CCCC1CCN(S(=O)(=O)c2ccccc2)CC1)NO showed an inhibition [3] of 84%, a GI50 [5] of 2.7 µM and an inhibition [1] of 23%. The inhibition [2] was 63%.

With Cc1ccc(S(=O)(=O)N2CCC(CCCC(=O)NO)CC2)cc1 the inhibition [1] was 28% and the inhibition [2] was 71%.

O=C(CCCC1CCN(S(=O)(=O)c2ccc(C(F)(F)F)cc2)CC1)NO showed an inhibition [1] of 15% and an inhibition [2] of 55%.

O=C(CCCC1CCN(S(=O)(=O)c2ccc(F)cc2)CC1)NO showed an inhibition [1] of 21% and an inhibition [2] of 60%.

Molecule Cc1cccc(S(=O)(=O)N2CCC(CCCC(=O)NO)CC2)c1 has an inhibition [3] of 83%, an inhibition [1] of 24% and an inhibition [2] of 61%.

CN1CCOc2cc(S(=O)(=O)N3CCC(CCCC(=O)NO)CC3)ccc21 gave an inhibition [1] of 32% and an inhibition [2] of 71%.

For O=C(CCCC1CCN(S(=O)(=O)Cc2ccccc2)CC1)NO, the inhibition [3] was 71%, the GI50 [5] was 3.2 µM and the inhibition [1] was 17%. It also gave an inhibition [2] of 58%.

CC(C)c1ccc(S(=O)(=O)N2CCC(CCCC(=O)NO)CC2)cc1 gave an inhibition [3] of 84%, an IC50 [4] of 0.537 µM and an inhibition [1] of 18%. The inhibition [2] was 66%.

O=C(CCCC1CCN(S(=O)(=O)c2ccc(-c3cnco3)cc2)CC1)NO showed an inhibition [1] of 35% and an inhibition [2] of 74%.

CN(Cc1ccccc1)S(=O)(=O)N1CCC(CCCC(=O)NO)CC1 gave an inhibition [1] of 29% and an inhibition [2] of 56%.

O=C(CCCC1CCN(S(=O)(=O)c2cccc3ccccc23)CC1)NO gave an inhibition [3] of 74%, an IC50 [4] of 0.181 µM and a GI50 [5] of 1.04 µM. It also gave a fraction unbound [6] of 0.03, an inhibition [1] of 40% and an inhibition [2] of 80%. For the same molecule, the Stability [7] was 14%.

O=C(CCCC1CCN(S(=O)(=O)c2ccccc2O)CC1)NO gave an inhibition [3] of 84%, an inhibition [1] of 37% and an inhibition [2] of 75%.
